{
  "source": "patent US20160128953A1",
  "about": "“TRANS-CLOMIPHENE AND ITS ANALOGUES AS AGENTS THAT INCREASE BONE MINERAL DENSITY” (REPROS THERAPEUTICS INC., priority 2013, published 2016)",
  "key": {"[1]": {"system": "hypogonadal males", "assay": "Total hip bone mineral density (BMD) by DEXA scan", "format": "in vivo, human", "settings": "6 months daily trans-clomiphene (12.5 mg, or up-titrated to 25 mg/day); 15 hypogonadal males; FIG. 3", "protocol": "The effect of trans-clomiphene on total hip bone mineral density (BMD) was assessed by dual-energy x-ray absorptiometry (DEXA) scans in 15 hypogonadal males (morning testosterone less than 300 ng/dL) with body mass index (BMI) ranging between 25 and 42 and no evidence of bone disease (including ostepenia) prior to treatment. DEXA scans were performed prior to treatment with trans-clomiphene to determine baseline measurements and after 6 months of daily administration of trans-clomiphene. Four of the 15 subjects received 12.5 mg trans-clomiphene administered daily throughout the 6 month period. Eleven of the 15 subjects began at the 12.5 mg/day dose but were later up-titrated to 25 mg/day. Total hip BMD was also assessed in 25 placebo (control) subjects at the same time points. BMD measurements at the 6 month time point in both treated and control subjects were compared to baseline measurements."}, "[2]": {"system": "human males with secondary hypogonadism", "assay": "Serum CTX (biomarker of bone resorption) by immunoassay", "format": "in vivo", "protocol": "(§1) The effect of the isolated trans-clomiphene isomer on the serum level of biomarkers of bone resorption was assessed in human males with secondary hypogonadism.\n(§2) Adult male subjects with a morning total testosterone blood level of <300 ng/dl and a serum LH of <15 IU/ml were administered either trans-clomiphene ([…] or 25 mg/day via oral capsule) or a topical testosterone gel (Testim®, 50 mg applied daily) over a three month period. Quantitative determination of baseline serum (circulating) estrogen (E2), dihydrotestosterone (DHT), sex hormone binding globulin (SHBG), P1NP-1 and CTX measurements were made in the subjects by immunoassay. Treatment with either trans-clomiphene (12.5 mg or 25 mg) or Testim® was then initiated. Follow-up measurements were taken at 3 weeks post initial dose, 6 months post initial dose and one month after cessation of treatment. The results are presented below at Table 1:\n(§3) The effects of trans-clomiphene and Testim® on the level of serum biomarkers of bone formation (P1NP) and bone resorption (CTX) are illustrated at FIGS. 1 and 2. […] The lower levels of P1NP-1 at both trans-clomiphene doses are well within the normal range (15-80 μg/L). A decrease in CTX levels was also observed at both trans-clomiphene dosages; however, the decrease was much stronger at the 25 mg dose. […]"}, "[3]": {"system": "human males with secondary hypogonadism", "assay": "Serum P1NP-1 (biomarker of bone formation) by immunoassay", "format": "in vivo", "protocol": "as §1, §2, §3"}, "[4]": {"system": "human males with secondary hypogonadism", "assay": "Serum hormone (DHT, E2) and SHBG levels by immunoassay in treated men", "format": "in vivo", "settings": "for DHT / E2 / SHBG: serum", "protocol": "as §1\nAdult male subjects with a morning total testosterone blood level of <300 ng/dl and a serum LH of <15 IU/ml were administered either trans-clomiphene (12 mg/day or 25 mg/day via oral capsule) or a topical testosterone gel (Testim®, 50 mg applied daily) over a three month period. Quantitative determination of baseline serum (circulating) estrogen (E2), dihydrotestosterone (DHT), sex hormone binding globulin (SHBG), P1NP-1 and CTX measurements were made in the subjects by immunoassay. Treatment with either trans-clomiphene (12.5 mg or 25 mg) or Testim® was then initiated. […]"}, "[5]": {"settings": "12.5 mg Androxal daily oral, 3 months"}, "[6]": {"settings": "12.5 mg Androxal daily oral, 6 weeks"}, "[7]": {"settings": "12.5 mg Androxal daily oral, Baseline (before TxT)"}, "[8]": {"settings": "12.5 mg Androxal daily oral, Post TxT (one month after cessation)"}, "[9]": {"settings": "25 mg Androxal daily oral, 3 months"}, "[10]": {"settings": "25 mg Androxal daily oral, 6 weeks"}, "[11]": {"settings": "25 mg Androxal daily oral, Baseline (before TxT)"}, "[12]": {"settings": "25 mg Androxal daily oral, Post TxT (one month after cessation)"}},
  "note": "Marks after values point to notes of the source that are not given here.",
  "data": [
    {"molecule": "CCN(CC)CCOc1ccc(/C(=C(/Cl)c2ccccc2)c2ccccc2)cc1", "note": "[Androxal, trans-clomiphene]", "values": [
      {"measurement": "increase in total hip BMD versus baseline", "setting": "[1]", "value": "about 1.23%"},
      {"measurement": "decrease in serum CTX levels, 25 mg dose compared with 12.5 mg dose", "setting": "[2]; 25 mg trans-clomiphene daily", "value": "much stronger"},
      {"measurement": "change in serum CTX levels", "setting": "[2]; both trans-clomiphene dosages (12.5 mg and 25 mg daily), FIG. 2", "value": "decrease"},
      {"measurement": "change in serum P1NP-1 levels, 25 mg dose compared with 12.5 mg dose", "setting": "[3]; 25 mg trans-clomiphene daily, dose dependency", "value": "more robust decrease"},
      {"measurement": "change in serum P1NP-1 levels", "setting": "[3]; either dose of trans-clomiphene (12.5 mg or 25 mg daily), FIG. 1", "value": "decrease"},
      {"measurement": "serum estrogen levels after cessation of treatment compared with baseline", "setting": "[4]; after cessation of trans-clomiphene treatment", "value": "remained elevated"},
      {"measurement": "change in serum estradiol 17β (E2)", "setting": "[4]; daily administration of trans-clomiphene for 6 weeks and 3 months", "value": "significant increase"},
      {"measurement": "DHT", "setting": "[4]; [5]", "value": "20.4^ ng/DL"},
      {"measurement": "E2", "setting": "[4]; [5]", "value": "56.7*¶ pg/mL"},
      {"measurement": "SHBG", "setting": "[4]; [5]", "value": 29.3, "unit": "nmol/L"},
      {"measurement": "DHT", "setting": "[4]; [6]", "value": "22.7*^ ng/DL"},
      {"measurement": "E2", "setting": "[4]; [6]", "value": "52.1*¶ pg/mL"},
      {"measurement": "SHBG", "setting": "[4]; [6]", "value": 28.6, "unit": "nmol/L"},
      {"measurement": "DHT", "setting": "[4]; [7]", "value": 15, "unit": "ng/dL"},
      {"measurement": "E2", "setting": "[4]; [7]", "value": 20.8, "unit": "pg/mL"},
      {"measurement": "SHBG", "setting": "[4]; [7]", "value": 24.7, "unit": "nmol/L"},
      {"measurement": "DHT", "setting": "[4]; [8]", "value": 13.7, "unit": "ng/dL"},
      {"measurement": "E2", "setting": "[4]; [8]", "value": "39.1* pg/mL"},
      {"measurement": "SHBG", "setting": "[4]; [8]", "value": 24.9, "unit": "nmol/L"},
      {"measurement": "DHT", "setting": "[4]; [9]", "value": "23.2*^ ng/DL"},
      {"measurement": "E2", "setting": "[4]; [9]", "value": "46.3*¶ pg/mL"},
      {"measurement": "SHBG", "setting": "[4]; [9]", "value": 29.5, "unit": "nmol/L"},
      {"measurement": "DHT", "setting": "[4]; [10]", "value": "22.2*^ ng/DL"},
      {"measurement": "E2", "setting": "[4]; [10]", "value": "48.3*¶ pg/mL"},
      {"measurement": "SHBG", "setting": "[4]; [10]", "value": 32, "unit": "nmol/L"},
      {"measurement": "DHT", "setting": "[4]; [11]", "value": 15.3, "unit": "ng/dL"},
      {"measurement": "E2", "setting": "[4]; [11]", "value": 24.7, "unit": "pg/mL"},
      {"measurement": "SHBG", "setting": "[4]; [11]", "value": 26.4, "unit": "nmol/L"},
      {"measurement": "DHT", "setting": "[4]; [12]", "value": 15.8, "unit": "ng/dL"},
      {"measurement": "E2", "setting": "[4]; [12]", "value": "40.2* pg/mL"},
      {"measurement": "SHBG", "setting": "[4]; [12]", "value": 28.7, "unit": "nmol/L"}
    ]}
  ]
}
